Publication PMC9853864, “Nonspecific Binding of Adenosine Tripolyphosphate and Tripolyphosphate Modulates the Phase Behavior of Lysozyme” (Journal of the American Chemical Society, 2023)

Target: T1, hen egg-white lysozyme (HEWL); chicken egg lysozyme (Gallus gallus, UniProt P00698)
T1 construct: gene LYZ
Experiment: 1H NMR titration, Trp imino CSP (W62, W111, W123), […] fit
Type: binding

T1 sequence (P00698 19-147): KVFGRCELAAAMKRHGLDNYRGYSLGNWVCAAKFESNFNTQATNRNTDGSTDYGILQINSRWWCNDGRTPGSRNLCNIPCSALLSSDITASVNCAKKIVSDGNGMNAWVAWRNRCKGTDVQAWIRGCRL

Kd: ~1000 µM
SMILES: O=P(O)(O)OP(=O)(O)OP(=O)(O)O [TPP]
